The values that follow come from US11879145B2, “Reagents and methods for replication, transcription, and translation in semi-synthetic organisms” (The Scripps Research Institute, priority 2019, dated 2024).

Series [1] relates to sfGFP^151(AXC). In words: In vivo translation screen of XTPs/YTPs: protein shift (AzK incorporation) by DBCO-TAMRA western blot. It is filed as cell-based, E. coli. Particulars: XTP 250 μM; TPT3TP 30 μM; dCNMO-dTPT3 UBP; strain ML2. The protocol:
(§1) In vivo Translation Screen of XTPs/YTPs. An overnight culture of the SSO strain ML2 carrying the pGEX-MbPylRS TetR plasmid was grown in 2×YT supplemented with 50 mM potassium phosphate, […] chloramphenicol and 100 μg/mL carbenicillin (herein referred to in this section as “media”), then diluted back to an OD600 of 0.03 in the same media and grown to an OD600 of 0.4 to 0.6. The culture was then chilled with shaking over ice-water for 15 minutes then pelleted by centrifugation at 3,200×g for 10 min. Cells were then resuspended and washed with ice-cold ddH2O twice then resuspended in ice-cold ddH2O to OD600 of 55-65. The electrocompetent cells (50 μL) and 1 ng of Golden Gate assembled plasmid with the UBP within the sfGFP and tRNAPyl genes (see Golden Gate Assembly of Plasmids) were transferred to a pre-chilled electroporation cuvette (0.2-cm-gap), then electroporated (Gene Pulser II; Bio-Rad) according to manufacturer's recommendations (voltage […], capacitor 2.5 μF, resistor 200Ω), and then immediately diluted with 950 μL of media. An aliquot (40 μL) of the transformation was then diluted five-fold in media supplemented with dCNMOTP (25 μM) and dTPT3TP (10 μM) for a final volume of 200 μL then allowed to recover for 1 h shaking at 37° C. Two-fold dilutions of the recovery were plated onto solid media supplemented with zeocin (50 μg/mL), dCNMOTP (10 μM), dTPT3TP (10 μM), and agar (2% w/v), then grown at 37° C. for 18 h. Single colonies were picked and grown in media (300 μL) supplemented with 50 μg/mL zeocin and provided dCNMOTP (25 μM) and dTPT3TP (10 μM) (herein afterward referred to in this section as “growth media”). The culture was monitored for cell growth (Envision 2103 Multilabel Plate Reader with a 590/20 nm filter) and then collected at an OD600˜1.0. An aliquot (50 μL) was subjected to plasmid isolation using the ZR Plasmid Prep Kit (Zymo Research). Isolated plasmids were then subjected to the streptavidin gel shift assay described below (using primers P3-4 and P5-6, Table S1) to determine UBP retention.
(§2) A colony with excellent UBP retention was then diluted to an OD600˜0.01 in growth media and grown to OD600˜0.4-0.6. This culture was then divided into multiple 300 μL cultures and for the screen of XTP analogs, each was provided with the corresponding XTP (at either 25 μM or 250 μM) or ddH2O for “−XTP” samples, TPT3TP (30 μM), and AzK (10 mM). For the screen of YTP analogs, each 300 μL culture was provided with the corresponding YTP (at either 25 μM or 250 μM) or ddH2O for “−YTP” samples, NaMTP (250 μM), and AzK (10 mM). Samples were shielded from light after addition of AzK to prevent photodegradation. These samples were then grown at 37° C. for 20 min before adding 1 mM IPTG and grown at 37° C. for an additional 1 h to induce T7 RNAP and transcription of tRNAPyl and PylRS. From this point on, cells were monitored for growth and fluorescence. Expression of sfGFP was then induced with anhydrotetracycline (100 ng/mL). After an additional 3 h of growth at 37° C., cells were collected (230 μL for affinity purification of sfGFP), cooled, and then pelleted and stored at −80° C. before protein purification.
Affinity Purification of sfGFP. Cell pellets collected from translation experiments were resuspended in BugBuster (100 μL 1×, EMD Millipore) and shaken at room temperature for 15 min. […]
A general note: Immunoblotting shows a protein as a band on a membrane.

The next series relates to E. coli strain ML2. Nature of the series: Cell growth (OD600) / toxicity of unnatural ribonucleoside triphosphates under ribonucleotide screening conditions. Particulars: for OD600: after 3 h of protein induction; for Cell growth / toxicity: YTP at the higher concentration (250 μM). It is filed as cell-based. The protocol:
In vivo Translation Screen of XTPs/YTPs. An overnight culture of the SSO strain ML2 carrying the pGEX-MbPylRS TetR plasmid was grown in 2×YT supplemented with 50 mM potassium phosphate, […] chloramphenicol and 100 μg/mL carbenicillin (herein referred to in this section as “media”), then diluted back to an OD600 of 0.03 in the same media and grown to an OD600 of 0.4 to 0.6. The culture was then chilled with shaking over ice-water for 15 minutes then pelleted by centrifugation at 3,200×g for 10 min. Cells were then resuspended and washed with ice-cold ddH2O twice then resuspended in ice-cold ddH2O to OD600 of 55-65. The electrocompetent cells (50 μL) and 1 ng of Golden Gate assembled plasmid with the UBP within the sfGFP and tRNAPyl genes (see Golden Gate Assembly of Plasmids) were transferred to a pre-chilled electroporation cuvette (0.2-cm-gap), then electroporated (Gene Pulser II; Bio-Rad) according to manufacturer's recommendations (voltage […], capacitor 2.5 μF, resistor 200Ω), and then immediately diluted with 950 μL of media. […] Two-fold dilutions of the recovery were plated onto solid media supplemented with zeocin (50 μg/mL), dCNMOTP (10 μM), dTPT3TP (10 μM), and agar (2% w/v), then grown at 37° C. for 18 h. […] An aliquot (50 μL) was subjected to plasmid isolation using the ZR Plasmid Prep Kit (Zymo Research). Isolated plasmids were then subjected to the streptavidin gel shift assay described below (using primers P3-4 and P5-6, Table S1) to determine UBP retention.
Samples were shielded from light after addition of AzK to prevent photodegradation. These samples were then grown at 37° C. for 20 min before adding 1 mM IPTG and grown at 37° C. for an additional 1 h to induce T7 RNAP and transcription of tRNAPyl and PylRS. From this point on, cells were monitored for growth and fluorescence. Expression of sfGFP was then induced with anhydrotetracycline (100 ng/mL).
Examining the Toxicity of Ribonucleoside Triphosphates. An overnight culture of ML2 was grown in 2×YT media supplemented with 50 mM potassium phosphate and chloramphenicol (5 μg/mL), referred to throughout this section as “media”. This culture was diluted back to an OD600 of 0.01 split into multiple 300 μL cultures, each supplemented with varying concentrations of TPT3TP, TAT1TP, NaMTP, or 5FMTP, along with a no triphosphate control. The cultures were then incubated at 37° C. with shaking at 230 rpm. […] OD600 was then plotted as a function of time for each nucleotide at each concentration to visualize differences in growth rates.

For series [2], the system named is sfGFP^151(AXC). In words: In vivo translation screen of XTPs/YTPs: total sfGFP fluorescence. It counts as cell-based, E. coli. The protocol:
as §1, §2
An SAR analysis was initiated with NaMTP and the nine XTP analogs. Based on performance in the dXTP screen described above, and to eliminate variable loss at the DNA level as a complicating factor, the unnatural information was encoded with the dCNMO-dTPT3 UBP. Additionally, the E. coli strain ML2, which expresses the nucleoside triphosphate transporter PtNTT2, but has also been genetically engineered for higher fidelity replication of the UBP by deletion of the gene encoding RecA (as is common in cloning strains) and overexpression of DNA Pol II was used. The same plasmid described above in Examples 1A and 1, harboring sfGFP^151(AXC) and tRNA^Pyl(GYT), was used, and to focus the screen to a single unnatural ribonucleotide, the M. mazei Pyl tRNA was transcribed in the presence of 30 μM TPT3TP. […]

Entries after “also recorded” stand apart in the source; their conditions may differ.

Regarding `COc1ccc(F)cc1[C@@H]1O[C@H](COP(=O)(O)OP(=O)(O)OP(=O)(O)O)[C@@H](O)[C@H]1O` [Compound 5F2OMeTP], the “sfGFP protein gel shift (ncAA incorporation)” value in the series with sfGFP^151(AXC) [1] came out at 94%. Besides, the OD600 amounted to 1.14 ± 0.05 in the series on E. coli strain ML2 (XTP 25 μM) and 1.16 ± 0.07 with E. coli strain ML2 (XTP 250 μM).
As for `O=P(O)(O)OP(=O)(O)OP(=O)(O)OC[C@H]1O[C@@H](n2ccc3ccccc3c2=S)[C@H](O)[C@@H]1O` [SICSTP], the OD600 with E. coli strain ML2 (YTP 25 μM) amounted to 1.25 ± 0.10; with E. coli strain ML2 (YTP 250 μM), 0.90 ± 0.04. Moreover, in the series with E. coli strain ML2, the “Cell growth / toxicity” value was “at least slightly toxic”.
For `O=P(O)(O)OP(=O)(O)OP(=O)(O)OC[C@H]1O[C@@H](n2ccc3ccsc3c2=S)[C@H](O)[C@@H]1O` [TPT3TP], in the series on sfGFP^151(AXC) [2] (YTP 25 μM), the “Greater fluorescence than 5SICSTP” value turned out to be 6 fold, the “Greater fluorescence than FSICSTP” value stood at 5 fold, the “Greater fluorescence than SICSTP” value was found to be 2 fold and the Protein production entry was “significant quantities of pure protein”. The “sfGFP fluorescence relative to control without YTP” value with sfGFP^151(AXC) [2] (YTP 250 μM, NaMTP 250 μM) is listed as “little fluorescence”. Besides, the Toxicity result in the series with E. coli strain ML2 (YTP at lower concentrations (25 μM)) is “somewhat less toxic”. For the same compound, the “Cell growth / toxicity” value in the series on E. coli strain ML2 is on record as “significantly reduced cell growth; also recorded: at least slightly toxic”.
